According to patent US20040044304A1, “Local drug delivery using photosensitizer-mediated and electromagnetic radiation enhanced vascular permeability” (priority 2002, published 2004):
Several values for one entry are separate records, joined by “and”; a condition that tells them apart may be missing. Equal entries are not always repeated. Marks after values point to notes of the source that are not given here.

Test system: blood vessels and tissue within region of irradiation
Experiment: Quantitation of FITC-Dextran or TRITC-Dextran fluorescence in blood vessels and tissue (method of Brunner et al.)
Assay type: in vivo, mice of strain C3H
Conditions: for Fluorecence intensity, Tissue, Baseline / Fluorecence intensity, Vessel, Baseline: prior to photodynamic treatment and probe
Protocol: At varying time points following the photodynamic activation of MRV6401 or SnET2, a total volume of 0.1 ml of either FITC-Dextran or TRITC-Dextran (obtained from Sigma Scientific, PO Box 14508, St. Louis, Mo., 63178, USA) was administered via the i.v. tail vein route. […] No. FD-2000s) or of molecular weight 150 kD (Sigma Cat. No. FD-150s), and the TRITC-Dextran solution was of molecular weight 155 kD (Sigma Cat. No. T1287). Prior to use, the dextrans were suspended in sterile 5% dextrose in water to a final concentration of 5% weight:volume. In all cases, a total volume of 0.1 ml of the […] solution was administered. The time of administration and the molecular weight of the various dextrans that were injected were as described in Table 6. In some animals the vascular permeability was determined 1-60 minutes following the completion of light irradiation using a dextran probe labeled with either FITC or TRITC, which was then followed 24 hours later by determination using a probe labeled with the other (opposite) fluorescent molecule. That is, if FITC was used immediately following irradiation, TRITC was used 24 hours later, and vice versa. To visualize the fluorescence emitted from the FITC-Dextrans, the Leitz Ploemopak L2 cube (Cat. No. 513-420, E. Leitz Inc., Rockleigh, N.J., 07647, USA) was used. This filter cube was fitted with a BP 450-490 (450 nm-490 nm band pass) excitation filter, the RKP 510 long pass dichroic mirror and a BP 525/20 (525±10 nm) band pass barrier filter. To visualize the fluorescence emitted from the TRITC-Dextrans, the Leitz Ploemopak N2 cube (Cat. No. 513-609, E. Leitz Inc., Rockleigh, N.J., 07647, USA) was used. This filter cube was fitted with a BP 530-560 (530 nm-560 nm band pass) excitation filter, the RKP 580 long pass dichroic mirror and the LP 580 (580 nm long pass) barrier filter. The spectral characteristics of the filters in the L2 and N2 cubes were such that in animals that were injected with both FITC- and TRITC-Dextran (see Table 6), there was no fluorescence “bleed-through” from the other fluorophore. That is, when visualizing TRITC-Dextran there was no fluorescent signal from FITC-Dextran that was present in the field. Similarly, when visualizing FITC-Dextran, there was no fluorescent signal from TRITC-Dextran that was present in the field. The quantitation of the level of either FITC-Dextran or TRITC-Dextran fluorescence in various regions of the chambers was undertaken using a minor modification of a previously described method [J. Brunner, F. Krummenaeur and H -A Lehr, “Quantification of video-taped images in microcirculation research using inexpensive imaging software” (Adobe Photoshop), Microcirculation, Vol. 7, pp 103-107, 2000]. In the studies described by Brunner et al., the imaging software utilized to quantitate the levels of fluorescence intensity in defined regions of interest within the window chamber was Adobe Photoshop. The software utilized for the studies described below was Image-Pro Plus (Media Cybernetics, 8484 Georgia Avenue, Silver Spring, Md. 20910, USA). In all other respects, the analysis undertaken below was the same as that described by Brunner et al. The level of fluorescence that was determined in both intra-vascular and extra-vascular regions using this method was directly proportional to the amount of the fluorescent labeled dextran in that region (Brunner et al., 2000).

[1] = 155 kD TRITC-Dextran, SnET2 0.75 mg/kg i.v., green 530 nm-560 nm 225 J/cm^2, time after TRITC-Dextran administration, region of irradiation, 0.75 mg/kg
[2] = Animal #12, 2,000 kD FITC-Dextran, MRV6401 0.05 mg/kg i.v., red 660 nm-680 nm 8 J/cm^2
[3] = Animal #12, 2,000 kD FITC-Dextran, MRV6401 0.05 mg/kg i.v., red 660 nm-680 nm 8 J/cm^2, time after Dextran administration
[4] = Animal #13, 155 kD TRITC-Dextran, MRV6401 0.05 mg/kg i.v., red 660 nm-680 nm 8 J/cm^2
[5] = Animal #13, 155 kD TRITC-Dextran, MRV6401 0.05 mg/kg i.v., red 660 nm-680 nm 8 J/cm^2, time after Dextran administration

SMILES: CCOC(=O)C1=Cc2c3nc(cc4nc(cc5[n-]c(cc6[n-]c2c(C)c6CC)c(C)c5CC)C(C)=C4CC)[C@@H](C)[C@]13CC.[Cl-].[Cl-].[Sn] (racemic) [SnET2, tin ethyl etiopurpurin]
- Fluorecence intensity, Tissue, Baseline (155 kD TRITC-Dextran, SnET2 0.75 mg/kg i.v., green 530 nm-560 nm 225 J/cm^2, mean ± 1 SD of three readings, 0.75 mg/kg): 30.5 ± 1.4 and 26.5 ± 0.2
- Fluorecence intensity, Tissue, 8 min [1]: 82.9 ± 1.9 and 73 ± 2.0
- Fluorecence intensity, Tissue, 20 min [1]: 110 ± 2.4 and 120 ± 4.4
- Fluorecence intensity, Tissue, 1 hr [1]: 175.4 ± 3.3 and 127.9 ± 5.5
- Fluorecence intensity, Tissue, 24 hr [1]: 196.4 ± 4.2 and 155 ± 7.1
- Fluorecence intensity, Vessel, 8 min [1]: 72 ± 1.7 and 105 ± 3.1
- Fluorecence intensity, Vessel, 20 min [1]: 90.6 ± 5.8 and 111 ± 2.7
- Fluorecence intensity, Vessel, 1 hr [1]: 97.7 ± 6.2 and 134 ± 10
- Fluorecence intensity, Vessel, 24 hr [1]: 55 ± 3.1 and 78 ± 1.5

SMILES: C=Cc1c(C)c2[n]3c1=CC1=NC(=Cc4c(C)c5c([n]4[In]3[Cl])C(=C3N=C(C=2)[C@@H](C)[C@@H]3CCC(=O)OC)CC5=O)C(CC)=C1C [MV6401, indium methyl pyropheophorbide]
- Fluorecence intensity, Tissue, Baseline [2]: 50 ± 1.8
- Fluorecence intensity, Vessel, Baseline [2]: 50 ± 1.6^c
- Fluorecence intensity, Tissue, 10 min [3]: 91.9 ± 4.4
- Fluorecence intensity, Tissue, 1 hr [3]: 121.1 ± 2.2
- Fluorecence intensity, Tissue, 24 hr [3]: 135 ± 6.6
- Fluorecence intensity, Vessel, 10 min [3]: 79.1 ± 1.95
- Fluorecence intensity, Vessel, 1 hr [3]: 83.5 ± 1.9
- Fluorecence intensity, Vessel, 24 hr [3]: 78.9 ± 2.0
- Fluorecence intensity, Tissue, Baseline [4]: 59.5 ± 1.87
- Fluorecence intensity, Vessel, Baseline [4]: 56.6 ± 1.24
- Fluorecence intensity, Tissue, 10 min [5]: 119.7 ± 1.96
- Fluorecence intensity, Tissue, 1 hr [5]: 122.9 ± 2.6
- Fluorecence intensity, Tissue, 24 hr [5]: 156 ± 1.49
- Fluorecence intensity, Vessel, 10 min [5]: 182.9 ± 2.6
- Fluorecence intensity, Vessel, 1 hr [5]: 168.7 ± 2.5
- Fluorecence intensity, Vessel, 24 hr [5]: 46 ± 1.4
